Data on six molecules can be found in PubChem BioAssay (NCI).

Among the test systems are HOP-92 NSCLC; RPMI-8226 leukemia; LOX IMVI melanoma; NCI-H226 lung; U251 CNS; MCF7 breast; CCRF-CEM leukemia; A498 renal; SF-268 CNS; NCI-H460 lung.
Holding throughout (assay): NCI tumour cell line growth inhibition, 48 h

Structures are written as SMILES. Values joined by “and” are separate entries in the source; they are usually repeats but may differ in a detail not shown here. Equal entries are not always repeated.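 Following 48 hours of exposure in 96-well plates, responses at five concentrations were used to interpolate endpoints linearly. Abbreviation: GI50, concentration required for 50% inhibition of growth. The concentration for full growth arrest is given as TGI.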

For the molecule `Cn1cc(-c2ccc3c(c2)ncn3-c2cc(NS(=O)(=O)C3CC3)cc(-c3ccc(F)cc3F)c2)cn1`, the GI50 was 2.83 µM in the assay on HOP-92 NSCLC; 3.97 µM in the assay on RPMI-8226 leukemia; 5.75 µM in the assay on LOX IMVI melanoma; 27 µM in the assay on NCI-H226 lung; 3.77 µM in the assay on U251 CNS; 4.37 µM in the assay with MCF7 breast. Also, the GI50 is 7.5 µM in the assay on CCRF-CEM leukemia, 0.074 µM in the assay with A498 renal, 3.01 µM in the assay on SF-268 CNS and 23.4 µM in the assay with NCI-H460 lung. In addition, the TGI is 62.4 µM in the assay on HOP-92 NSCLC; 32.2 µM in the assay with RPMI-8226 leukemia; 42 µM in the assay with LOX IMVI melanoma; 94.4 µM in the assay on NCI-H226 lung; more than 100 µM with U251 CNS; 92.6 µM in the assay on MCF7 breast. Also, the TGI is more than 100 µM in the assay with CCRF-CEM leukemia, 0.542 µM in the assay with A498 renal, more than 100 µM in the assay with SF-268 CNS and more than 100 µM in the assay with NCI-H460 lung.

`N=C(N)SCc1ccc(Cl)c2ccccc12` (tested in a mixture with another compound): the TGI with HOP-92 NSCLC is 32.2 µM and 24.9 µM; in the assay on RPMI-8226 leukemia, 18.5 µM and 7.98 µM; in the assay with LOX IMVI melanoma it was 33.1 µM and 36.6 µM; with NCI-H226 lung, 30.3 µM and 28.6 µM; with U251 CNS, 25.7 µM and 23.6 µM; with MCF7 breast, 24.7 µM and 27.9 µM. The TGI was 26.4 µM and 17.4 µM in the assay on CCRF-CEM leukemia; 22.5 µM and 23.2 µM in the assay with A498 renal; 33.3 µM and 33.5 µM in the assay with SF-268 CNS; 22.4 µM and 21 µM in the assay with NCI-H460 lung.

As for `COc1cc2c3c(n(CCCN)c(=O)c2cc1OC)-c1ccc(N)cc1C3=O`, the GI50 in the assay on HOP-92 NSCLC is 2.3 µM; with RPMI-8226 leukemia, 19.5 µM; in the assay on LOX IMVI melanoma it was 0.333 µM; with NCI-H226 lung, 2.85 µM; with U251 CNS, 0.575 µM; in the assay on MCF7 breast it was 1.66 µM. Further, the GI50 was 0.389 µM in the assay on CCRF-CEM leukemia, 1.93 µM with A498 renal, 1.64 µM with SF-268 CNS and 4.52 µM in the assay on NCI-H460 lung. Also, the TGI in the assay on HOP-92 NSCLC was 15.3 µM; with RPMI-8226 leukemia it was 49.8 µM; in the assay with LOX IMVI melanoma, 2.16 µM; in the assay on NCI-H226 lung it was 14.5 µM; in the assay with U251 CNS, 6.84 µM; in the assay with MCF7 breast, more than 38.2 µM. The TGI with CCRF-CEM leukemia turned out to be 7.28 µM; in the assay on A498 renal it was 9.78 µM; with SF-268 CNS, 31.6 µM; with NCI-H460 lung, 16.8 µM.

For the molecule `OC[C@H]1C[C@](O)(c2ccc(F)cc2)[C@@H](c2ccc(F)cc2)O1`, the GI50 in the assay on HOP-92 NSCLC is 66 µM; in the assay on RPMI-8226 leukemia, more than 100 µM; in the assay with LOX IMVI melanoma it was more than 100 µM; with NCI-H226 lung it was more than 100 µM; in the assay with U251 CNS, more than 100 µM; in the assay with MCF7 breast it was more than 100 µM. Moreover, the GI50 in the assay with CCRF-CEM leukemia, in the assay with A498 renal, with SF-268 CNS and in the assay on NCI-H460 lung was more than 100 µM throughout. The TGI in the assay with HOP-92 NSCLC, with RPMI-8226 leukemia, in the assay on LOX IMVI melanoma, in the assay with NCI-H226 lung, with U251 CNS and in the assay with MCF7 breast was more than 100 µM throughout. Besides, the TGI in the assay on CCRF-CEM leukemia, in the assay on A498 renal, in the assay with SF-268 CNS and in the assay on NCI-H460 lung was more than 100 µM each time.

Regarding `CN(c1ccccc1)c1c2ccccc2nc2[nH]c3ccccc3c12`, the GI50 in the assay on HOP-92 NSCLC was 1.79 µM; with RPMI-8226 leukemia it was 1.49 µM; in the assay with LOX IMVI melanoma, 1.43 µM; in the assay with NCI-H226 lung, 1.91 µM; with U251 CNS it was 1.68 µM; in the assay on MCF7 breast, 0.769 µM. Moreover, the GI50 was 1.27 µM with CCRF-CEM leukemia, 2.04 µM with A498 renal, 3.41 µM with SF-268 CNS and 1.16 µM with NCI-H460 lung. For the same molecule, the TGI in the assay with HOP-92 NSCLC is 6.46 µM; with RPMI-8226 leukemia it was 3.92 µM; in the assay with LOX IMVI melanoma, 4 µM; with NCI-H226 lung, 4.44 µM; in the assay with U251 CNS, more than 25.5 µM; in the assay on CCRF-CEM leukemia, more than 100 µM. Also, the TGI is 5.32 µM with A498 renal, 15.2 µM with SF-268 CNS and 10.3 µM with NCI-H460 lung.

Consider `Oc1c(Br)cc(Cl)cc1C(c1cc(Cl)cc(Br)c1O)C(Cl)(Cl)Cl`, for which the GI50 is 0.457 µM in the assay on HOP-92 NSCLC; 0.961 µM with RPMI-8226 leukemia; 2.97 µM with LOX IMVI melanoma; 2.72 µM in the assay on NCI-H226 lung; 2.18 µM in the assay on U251 CNS; 2.83 µM with MCF7 breast. In addition, the GI50 is 0.996 µM in the assay with CCRF-CEM leukemia, 1.69 µM in the assay with A498 renal, 3.61 µM with SF-268 CNS and 2.4 µM in the assay on NCI-H460 lung. The TGI is 2.48 µM in the assay with HOP-92 NSCLC; 6.47 µM with RPMI-8226 leukemia; 11.4 µM in the assay with LOX IMVI melanoma; 8.61 µM in the assay with NCI-H226 lung; 10.9 µM in the assay with U251 CNS; 10.9 µM in the assay with MCF7 breast. Further, the TGI in the assay with CCRF-CEM leukemia is 9.71 µM; with A498 renal, 8.24 µM; with SF-268 CNS, 15.2 µM; with NCI-H460 lung, 8.53 µM.
